These results are taken from ChEMBL document CHEMBL3638409, “Cycloalkane carboxylic acid derivatives as CXCR3 receptor antagonists” (2015).

In the test the target is T1, C-X-C chemokine receptor type 3 (Homo sapiens, UniProt P49682).
T1 sequence (P49682 whole entry): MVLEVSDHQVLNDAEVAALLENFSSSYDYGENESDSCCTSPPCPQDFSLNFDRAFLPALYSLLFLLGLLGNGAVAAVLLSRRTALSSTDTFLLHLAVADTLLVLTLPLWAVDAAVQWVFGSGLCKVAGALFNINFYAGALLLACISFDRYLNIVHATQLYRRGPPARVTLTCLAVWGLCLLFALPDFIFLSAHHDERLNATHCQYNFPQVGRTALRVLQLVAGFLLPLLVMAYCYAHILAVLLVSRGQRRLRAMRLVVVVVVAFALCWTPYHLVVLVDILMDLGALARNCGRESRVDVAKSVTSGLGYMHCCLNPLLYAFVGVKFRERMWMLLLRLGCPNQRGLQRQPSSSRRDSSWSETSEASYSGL
In words: Competition Radioligand Binding Assay: Competition radioligand binding assays were performed to determine the in vitro potency of the newly synthesized, unlabeled test compounds to displace the specific binding of the radiolabelled endogenous chemokine, 125I-CXCL10, from the human CXCR3-A receptor. IC50 values were determined for the test compounds and used to explore the structure-activity relationships (SAR).

The structures appear in SMILES notation.

With `COc1cc(CN(C2CC(C(=O)O)C2)C(C)c2ccc3c(c2)CCO3)ccc1OCCN1C(=O)CCC1=O` (centres undefined), the IC50 (in general, the concentration needed to halve the response being measured) stood at 58 nM.

`CN1CC(=O)N(CCOc2ccc(CN(C[C@H]3CC[C@H](C(=O)O)CC3)C3CCc4cc(Cl)ccc43)cc2Cl)C1=O` (some centres undefined) registered an IC50 of 1200 nM. This IC50 is about 21-fold higher than that of the compound before.

`Cc1cc(CN(C[C@H]2CC[C@H](C(=O)O)CC2)C(C)c2ccc(Cl)c(Cl)c2)ccc1OCCN1C(=O)CN(C)C1=O` (some centres undefined): the 50% inhibitory concentration (IC50) stood at 431 nM.

The compound `COc1cc(CN(C[C@H]2CC[C@H](C(=O)O)CC2)C(C)c2ccc3c(c2)CCO3)ccc1CCCN1C(=O)CCC1=O` (some centres undefined) yielded an IC50 of 81 nM.
